According to publication PMC4959957 (British Journal of Pharmacology, 2016):

Biological target: T1, Asu-ACR-16 (Ascaris suum, UniProt A0A0K0QSL7)
T1 sequence (A0A0K0QSL7 24-504): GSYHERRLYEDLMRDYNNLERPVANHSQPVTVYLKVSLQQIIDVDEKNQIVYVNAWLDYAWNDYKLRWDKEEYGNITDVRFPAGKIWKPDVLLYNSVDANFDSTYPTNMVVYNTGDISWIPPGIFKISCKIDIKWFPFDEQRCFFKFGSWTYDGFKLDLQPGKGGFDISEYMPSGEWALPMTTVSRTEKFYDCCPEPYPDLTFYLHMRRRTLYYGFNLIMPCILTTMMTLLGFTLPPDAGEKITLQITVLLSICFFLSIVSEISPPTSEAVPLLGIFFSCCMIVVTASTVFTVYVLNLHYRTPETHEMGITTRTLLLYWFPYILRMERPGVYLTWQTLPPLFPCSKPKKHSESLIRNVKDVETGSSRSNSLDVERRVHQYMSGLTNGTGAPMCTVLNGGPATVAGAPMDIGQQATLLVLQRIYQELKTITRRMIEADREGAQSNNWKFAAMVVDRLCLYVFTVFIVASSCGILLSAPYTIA
Assay: two-electrode voltage clamp, agonist concentration-response in Xenopus oocytes
Type: cell-based

Row | Structure (SMILES) | EC50
1 | CC(=O)OCC[N+](C)(C)C [ACh] | 5.9 ± 0.1 µM
2 | CN1CCC[C@H]1c1cccnc1 [nic, nicotine] | 4.5 ± 0.2 µM
